In one data set the target is T1, SAH binding protein (Escherichia coli, UniProt P0AF12).
T1 construct: prepared from the DH5a derivative of the E. coli K-12 strain; endogenous in cells; host or cells: E. coli K-12 DH5a lysate
Briefly: Click-and-cleave with proteins/lysate, SDS-PAGE/silver stain. Particulars: cleavage conditions (10 mM 2-nitrobenzhydrazide and 10 mM HCl in 50% acetonitrile). Further details: species or system E. coli K-12 strain. As for the experimental part:
Compound 11 (final concentration 2.5 μM) was incubated for 5 min at 4° C. with a lysate (final total protein concentration 5 mg/ml) prepared from the DH5a derivative of the E. coli K-12 strain in phosphate buffered saline (final volume 100 μl). In a so called competition control (designated “C” as opposed to “A” for CCMS assay without the competitor SAH) carried out side-by-side, S-adenosyl-L-homocysteine (SAH) (final concentration 250 μM) was added to the lysate before compound 11 to compete for the binding of the SAH selectivity function of 11 to SAH binding proteins such as S-adenosyl-L-methionine (SAM) dependent methyltransferases. […]
The samples “A” and “C” were incubated with 250 μg 13 (CPT601, CCB 4, trans-cyclooctene (TCO) modified controlled pore glass (CPG). CPG-TCO beads), respectively, over night at 4° C. with rotation to keep the CPG beads (13) in suspension. […] Formed by the TCO-tetrazine click reaction, the fluorescent 18-11-protein conjugates were detected as in-gel fluorescent bands after SDS-PAGE. In the samples taken after incubation with 13, less in-gel fluorescent bands (18-11-protein conjugates) were detected than in the samples taken before incubation with 13, showing that 11-protein conjugates had reacted with 13 to form 13-11-protein conjugates. […]

In data set [1] the target is T2, tRNA (guanine-N(7)-)-methyltransferase (Escherichia coli, UniProt P0A8I5).
T2 construct: prepared from the DH5a derivative of the E. coli K-12 strain; endogenous in cells; host or cells: E. coli K-12 DH5a lysate
Briefly: Click-and-cleave with proteins/lysate, nanoLC/MS2 protein quantification of gel slices. As to conditions: A (without competitor SAH), Cleavage; compound 2.5 μM, gel slice around 25 kDa. It is filed as binding, E. coli K-12 strain. As for the experimental part:
(§1) Compound 11 (final concentration 2.5 μM) was incubated for 5 min at 4° C. with a lysate (final total protein concentration 5 mg/ml) prepared from the DH5a derivative of the E. coli K-12 strain in phosphate buffered saline (final volume 100 μl). In a so called competition control (designated “C” as opposed to “A” for CCMS assay without the competitor SAH) carried out side-by-side, S-adenosyl-L-homocysteine (SAH) (final concentration 250 μM) was added to the lysate before compound 11 to compete for the binding of the SAH selectivity function of 11 to SAH binding proteins such as S-adenosyl-L-methionine (SAM) dependent methyltransferases.
(§2) The samples were irradiated with UV light (λmax=310 nm) for 5 min in the caproBox (caprotec bioanalytics, Berlin, Germany) at about 4° C. to activate the reactivity function of 11 and form the covalent cross-link to proteins leading to 11-protein conjugates. Due to the SAH selectivity function in 11. SAH binding proteins will be selectively cross-linked to 11 and this selective crosslink will be diminished or inhibited in the competition control “C”.
(§3) The samples “A” and “C” were incubated with 250 μg 13 (CPT601, CCB 4, trans-cyclooctene (TCO) modified controlled pore glass (CPG). CPG-TCO beads), respectively, over night at 4° C. with rotation to keep the CPG beads (13) in suspension. During this time the 11-protein conjugates covalently bound to 13 by the TCO-tetrazine click reaction to form 13-11-protein conjugates. Selective binding of 11-protein conjugates to 13 was shown by taking 5 μl samples of “A” and “C”, respectively, before and after incubation with 13 and incubating these samples with 18 (final concentration 10 μM, CPT533. Probe 3, TCO-TAMRA) for 15 min at room temperature. Formed by the TCO-tetrazine click reaction, the fluorescent 18-11-protein conjugates were detected as in-gel fluorescent bands after SDS-PAGE. In the samples taken after incubation with 13, less in-gel fluorescent bands (18-11-protein conjugates) were detected than in the samples taken before incubation with 13, showing that 11-protein conjugates had reacted with 13 to form 13-11-protein conjugates.
(§4) The supernating solution was separated from the 13-11-protein conjugates after centrifugation in a table top centrifuge and the CPG beads containing the 13-11-protein conjugates were washed by re-suspending in fresh solution and removal of the supernatant after centrifugation (three times with 200 μl 4×SL Buffer, three times with 200 μl 50% acetonitrile).
(§5) The washed CPG beads containing the 13-11-protein conjugates were divided into two aliquots, respectively, for “A” and “C”. One aliquot was incubated with 10 mM 2-nitrobenzhydrazide and 10 mM HCl in 10 μl 50% acetonitrile (final concentrations and volume) at room temperature for 1 h while keeping the CPG beads containing the 13-11-protein conjugates in suspension by rotation yielding proteins with attached cleaved off photo-reacted reactivity function. As a control, the second aliquot of the CPG beads containing the 13-11-protein conjugates was treated the same way side-by-side but without 2-nitrobenzhydrazide and HCl. The proteins in the solutions supernating (cleaved) the CPG beads were analyzed by SDS-PAGE (4-20% Tris-Glycine gradient gels, 15 well, 1.0 mm; Novex® life Technologes® Ref. EC60255BOX, 25 min run time at 300 V) followed by silver staining (ProteoSilver Silver Stain Kit, Sigma).
(§6) Gel slices were cut out around 25 kDa in each gel lane corresponding to the molecular weight (height) of the specific gel lane marked by the red arrow in FIG. 13. The gel slices were treated with trypsin and the resulting peptides were analyzed by nanoLC/MS^2 (LTQ Orbitrap) followed by automatic software based protein identification and quantification (MaxQuant software package). […]

In data set [2] the target is T3, tRNA (cmo5U34)-methyltransferase (Escherichia coli, UniProt P76290).
T3 construct: prepared from the DH5a derivative of the E. coli K-12 strain; endogenous in cells; host or cells: E. coli K-12 DH5a lysate
The data set is described as above. It counts as binding, E. coli K-12 strain. Particulars: Cleavage, compound 2.5 μM, gel slice around 25 kDa. The protocol: as §1, §2, §3, §4, §5, §6

For data set [3], the target named is T4, 5-methylthioadenosine/S-adenosylhomocysteine nucleosidase (Escherichia coli, UniProt P0AF12).
T4 construct: prepared from the DH5a derivative of the E. coli K-12 strain; endogenous in cells; host or cells: E. coli K-12 DH5a lysate
The description is as above. It counts as binding, E. coli K-12 strain. Particulars: compound 2.5 μM, gel slice around 25 kDa. The protocol:
as §1, §2, §3, §4, §5, §6

The target in data set [4] is T5, Ribosomal RNA small subunit methyltransferase G (Escherichia coli, UniProt P0A6U5).
T5 construct: prepared from the DH5a derivative of the E. coli K-12 strain; endogenous in cells; host or cells: E. coli K-12 DH5a lysate
The description is as above. It counts as binding, E. coli K-12 strain. Particulars: Cleavage, compound 2.5 μM, gel slice around 25 kDa. As for the experimental part:
as §1, §2, §3, §4, §5, §6

A short description of data set [5]: Click-and-cleave without proteins/lysate (release of cleaved off photo-reacted reactivity function 15, LC-MS). It counts as physicochemical. Particulars: for Area/a.u. of LC-MS EIC 249.10 peak at 1.75 min (cleaved off photo-reacted reactivity function 15): starting material bound to CPG-TCO beads 13. The protocol: A solution of 100 μL 2.5 μM 11 (CPT727, Capture Compound bearing tetrazine as sorting function and a chemically cleavable photo-reactivity function) in phosphate buffered saline (PBS) was irradiated with UV light (λmax=310 nm) for 5 min at 4° C. in the caproBox (caprotec bioanalytics, Berlin. Germany) to activate the reactivity function yielding 12 (Scheme 12).
The resulting solution was incubated with 2 mg 13 (CPT601, CCB 4, trans-cyclooctene (TCO) modified controlled pore glass (CPG), CPG-TCO beads) over night at 4° C. to covalently bind compound 12 to 13 by the TCO-tetrazine click reaction yielding 14 (Scheme 12). During this time, 13 was kept in suspension by rotation.
Unbound 12 was removed by separating the supernating solution from 14 after centrifugation in a table top centrifuge and washing the solid 14 by re-suspending in fresh solution and removal of the supernatant after centrifugation (three times with 200 μl SL Buffer (50 mM Tris/HCl, 320 mM beta-mercaptoethanol, 2.5% sodium dodecylsulfate, 0.05% bromophenol blue, 10% glycerol, pH 6.8), three times with 200 μl 50% acetonitrile).
The washed 14 was divided into two aliquots. One aliquot was incubated with 10 mM 2-nitrobenzhydrazide and 10 mM HCl in 10 μl 50% acetonitrile (final concentrations and volume) at room temperature for 1 h while keeping 14 in suspension by rotation yielding the cleaved off photo-reacted reactivity function 15 (Scheme 12). As a control, the second aliquot of 14 was treated the same way side-by-side but without 2-nitrobenzhydrazide and HCl. The solutions supernating (cleaved) 14 were analyzed by LC-MS.
The same procedure was performed side-by-side using 16 (CPT634, Capture Compound bearing tetrazine as sorting function and non-cleavable photo-reactivity function) instead of 11.

The mark [6] stands for this setting: C (competition control, SAH 250 μM).
The mark [7] stands for this setting: A (without competitor SAH), Cleavage (10 mM 2-nitrobenzhydrazide, 10 mM HCl).
[8] abbreviates: A (without competitor SAH), no Cleavage.
Where [9] appears, read: C (competition control, SAH 250 μM), Cleavage.
Where [10] appears, read: C (competition control, SAH 250 μM), no Cleavage.

Each structure is given as a SMILES string.

The results in this text go back to patent US20160349268A1, “STEPWISE ASSEMBLED CAPTURE COMPOUNDS COMPRISING A CLEAVABLE FUNCTION AND METHOD FOR ISOLATING AND/OR CHARACTERIZING BIOMOLECULES OR BIOMOLECULE FRAGMENTS, IN PARTICULAR PROTEINS OR PROTEIN FRAGMENTS, OF COMPLEX MIXTURES” (CAPROTEC BIOANALYTICS GMBH, priority 2014, published 2016).

T4 sequence (P0AF12 whole entry): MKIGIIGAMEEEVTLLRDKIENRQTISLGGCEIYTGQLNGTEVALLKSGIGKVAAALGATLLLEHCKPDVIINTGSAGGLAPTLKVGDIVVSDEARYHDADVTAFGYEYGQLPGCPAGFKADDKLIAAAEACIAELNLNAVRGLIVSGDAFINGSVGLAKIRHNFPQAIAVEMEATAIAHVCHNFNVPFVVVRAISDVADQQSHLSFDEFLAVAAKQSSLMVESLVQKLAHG
T5 sequence (P0A6U5 whole entry): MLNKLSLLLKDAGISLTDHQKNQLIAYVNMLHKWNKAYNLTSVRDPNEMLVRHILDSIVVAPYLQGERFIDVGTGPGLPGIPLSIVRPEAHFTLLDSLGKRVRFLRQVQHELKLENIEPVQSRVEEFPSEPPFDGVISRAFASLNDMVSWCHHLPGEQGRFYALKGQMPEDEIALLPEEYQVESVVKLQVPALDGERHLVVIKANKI
T3 sequence (P76290 whole entry): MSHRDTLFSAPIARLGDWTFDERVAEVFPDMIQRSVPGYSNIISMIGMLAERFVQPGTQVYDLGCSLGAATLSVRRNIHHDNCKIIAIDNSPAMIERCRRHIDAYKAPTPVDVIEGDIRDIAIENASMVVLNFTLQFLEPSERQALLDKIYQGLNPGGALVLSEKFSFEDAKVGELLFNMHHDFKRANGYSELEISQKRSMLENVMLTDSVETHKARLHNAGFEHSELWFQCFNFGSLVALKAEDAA
T1 sequence (P0AF12 whole entry): as the sequence (P0AF12 whole entry) above
T2 sequence (P0A8I5 whole entry): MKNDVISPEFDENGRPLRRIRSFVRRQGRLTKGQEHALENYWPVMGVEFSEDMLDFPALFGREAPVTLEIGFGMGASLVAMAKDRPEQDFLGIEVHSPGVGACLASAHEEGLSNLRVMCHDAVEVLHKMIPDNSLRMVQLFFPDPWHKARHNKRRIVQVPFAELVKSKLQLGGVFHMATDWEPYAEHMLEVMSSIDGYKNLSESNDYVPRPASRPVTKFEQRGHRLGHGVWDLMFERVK

On to `Cc1nnc(-c2ccc(CN(CC(=O)NCCCCNc3ncnc4c3ncn4C3OC(CSCC[C@H](N)C(=O)O)C(O)C3O)C(=O)CC/C=N/N(C)C(=O)c3ccc(C4(C(F)(F)F)N=N4)cc3)cc2)nn1` (stereo partly drawn) [Compound 11, (2S)-2-amino-4-((3,4-dihydroxy-5-(6-(4-(2-((E)-N-(4-(6-methyl-1,2,4,5-tetrazin-3-yl)benzyl)-4-(2-methyl-2-(4-(3-(trifluoromethyl)-3H-diazirin-3-yl)benzoyl)hydrazono)butanamido)acetamido)butylamino)-9H-purin-9-yl)tetrahydrofuran-2-yl)methylthio)butanoic acid], for which, at SAH binding protein, the “gel band corresponding to a SAH binding protein after SDS-PAGE/silver stain” value is reported as “present”. In addition, the Normalized protein intensities in data set [1] came to 4.0E+05; in data set [2] (A (without competitor SAH)), 1.6E+06; in data set [2] (setting [6]) it was 2.9E+05; in data set [3] (setting [7]), 9.0E+07; in data set [3] (setting [8]), 4.0E+06; in data set [3] (setting [9]) it was 2.2E+06. Moreover, the Normalized protein intensities in data set [3] (setting [10]) is given as 1.0E+06; in data set [4] (A (without competitor SAH)), 7.8E+05; in data set [4] (setting [6]), 3.6E+05. For the same compound, the “fold higher intensity of 15 with 2-nitrobenzhydrazide and HCl than without” value in data set [5] (10 mM 2-nitrobenzhydrazide, 10 mM HCl vs 50% acetonitrile only) was “more than 50 fold”. Moreover, the “Area/a.u. of LC-MS EIC 249.10 peak at 1.75 min (cleaved off photo-reacted reactivity function 15)” value in data set [5] (cleavage condition 10 mM 2-nitrobenzhydrazide, 10 mM HCl in 50% acetonitrile) is listed as 26722302 a.u; in data set [5] (cleavage condition 50% acetonitrile), 491625 a.u.

As to `Cc1nnc(-c2ccc(CN(CC(=O)NCCCCNc3ncnc4c3ncn4C3OC(CSCC[C@H](N)C(=O)O)C(O)C3O)C(=O)c3ccc(C4(C(F)(F)F)N=N4)cc3)cc2)nn1` (some centres unmarked) [Compound 16], on SAH binding protein, the “gel band corresponding to a SAH binding protein after SDS-PAGE/silver stain” value was “absent”. For the same compound, the Normalized protein intensities in data set [3] (setting [7]) turned out to be 7.2E+06; in data set [3] (setting [8]), 1.9E+05; in data set [3] (setting [9]), 7.9E+05; in data set [3] (setting [10]) it was 2.6E+05; in data set [4] (A (without competitor SAH)), 1.5E+05; in data set [4] (setting [6]), 7.5E+04.
